Assay results: paper PMC6642116, “Structural and functional analyses of hepatitis B virus X protein BH3-like domain and Bcl-xL interaction” (Nature Communications, 2019)

Legend:
Assay type in all cases: cell-based
HepG2-NTCP cells = experiment: Cell viability (CCK8 assay) of HBV-infected HepG2-NTCP cells; parameters: Cell viability: unit not given here; settings: CCK8, unrelated control peptide, day 8
Method: (§1) Fig. 6 The HBx-aa118–127 peptide, but not ABT-263, inhibits HBV replication and transcription in HepG2.2.15 cells. a HepG2.2.15 cells were treated with 125, 250, 500, and 1000 nM of ABT-263 for 2 days. Cytoplasmic HBV viral particles were isolated and the viral DNA replication intermediates were quantified (Methods). The results represent the fold change of the replicative intermediates in HepG2.2.15 cells from the indicated treatments, compared with those without treatment. b HepG2.2.15 cells were treated with the indicated concentrations of ABT-263 for 2 days. The lysate was analyzed by immunoblotting using antibodies to caspase-3 (CASP3) and GAPDH (glyceraldehyde 3-phosphate dehydrogenase). c, d The HBx-aa113–135, HBx-aa118–127, or the control peptides were delivered into HepG2.2.15 cells using PEP-1 nanoparticles (Methods). The levels of HBV DNA (c) and the levels of HBV S-antigen (HBsAg) expression (d) in culture medium collected from HepG2.2.15 cells were measured (Methods). The results are shown as fold change compared to that of the control peptide. e–g HepG2-NTCP cells were transfected with HBx118–127 peptide with concentration of […], and 50 μg/ml or unrelated control peptide during HBV infection (multiplicity of infection (MOI) = 200), respectively. e HBV e-antigen (HBeAg), f HBV DNA, and g cell viability were measured at day 8 after HBV infection. Data shown represent mean ± SD. Significance is indicated on the top. Not significant (ns): *P < 0.05, **P < 0.01; two-tailed unpaired t tests (n = 3 biologically independent samples). Source data are provided as a Source Data file
HBx-aa118-127 peptide treatment.
obvious cytotoxicity at concentrations between 12.5-200 µg/mL (Fig. 6g). Taken together, […]

[1] = system: HBV replication from pHBV1.3-Xnull replicon in HepG2 cells; experiment: HBV production rescue assay, PEP-1 delivered peptides; settings: HepG2 + pHBV1.3-Xnull, peptide/PEP-1, 48 h
Excerpt: Fig. 3 The HBx-BH3-like domain is critical for HBV production in HepG2 cells. a–e C-terminal biotinylated HBx-aa113–135 peptides (both wild-type (WT) and the W120A/L123A double mutant) were delivered into HepG2 cells transfected with pHBV1.3-Xnull using PEP-1 nanoparticles (Methods) and analyzed by streptavidin-FITC (fluorescein isothiocyanate) for transfection efficiency (a). Scale bar is 50 μm. An unrelated 23-aa peptide was used as a control (Control). The intracellular expression levels of HBV core antigen (HBcAg (b) and the levels of HBV e-antigen (HBeAg) (c), HBV S-antigen (HBsAg) (d), and HBV DNA (e) in the culture medium collected from HepG2 cells were measured (Methods). The results are shown as fold change to the WT HBx-aa113–135 peptide (WT). f–i) HepG2 cells were co-transfected with pHBV1.3-Xnull and pTT22m-HBx-WT (WT), pHBV1.3-Xnull and pTT22m-HBx(W120A/L123A), or pHBV1.3-Xnull and the pTT22m vector control (Control). Intracellular expression levels of HBcAg (f) and the levels of HBeAg (g), HBsAg (h), and HBV DNA (i) in the culture medium from HepG2 cells were measured similarly. The results are shown as fold change to the combination of pHBV1.3-Xnull and pTT22m-HBx-WT (WT). Data shown represent mean ± SD. Significance is indicated on the top. **P < 0.01, ***P < 0.001, ****P < 0.0001; two-tailed unpaired t tests (n = 3 biologically independent samples). Source data are provided as a Source Data file
HepG2 cells were grown in Dulbecco’s modified Eagle’s medium (DMEM) with 10% Gibco fetal bovine serum. C-terminal biotinylated-labeled HBx peptides were transfected into HepG2 cells by pep-1[16], a peptide carrier for the delivery of biologically active proteins into mammalian cells. HBx peptides and pep-1 were firstly dissolved in DMEM to 1 mg/ml, then adjusted to 500 µl DMEM to a final concentration of 100 µg/ml, and incubated at 37 °C for 30 min in the tube. The incubated peptide mixture was added into pre-seeded HepG2 cells in a 24-well plate and incubated for another 30 min, and then washed five times by phosphate-buffered saline (PBS) to remove the free peptides. The transfected C-terminal biotinylated HBx peptides were detected by using streptavidin-FITC (fluorescein isothiocyanate) equipment (Thermo Fisher Scientific) following the standard immunostaining methods.
Transfection of plasmids into HepG2 cells was carried out using X-tremeGENE HP DNA Transfection Reagent (Roche), following the manufacturer’s protocol. A transfection efficiency of 20–30% could be achieved. Cells were pre-seeded 24 h before transfections. pHBV1.3-HBx-null plasmid was transfected into HepG2 cells for 6 h, then HBx-aa113–135, HBx-aa113–135-(W120A, L123A), or control peptide was transfected by pep-1 carrier and incubated for additional 48 h without the removal of peptides. The culture media of the HepG2 cells were harvest for analysis.
(§2) The levels of HBsAg, HBeAg, and HBcAg expression were measured by chemiluminescence, using Commercial Assay Kit (Wantai, Beijing, China). Northern blot analysis of HBV RNA, Southern blot analysis of HBV DNA, and real-time PCR quantification of HBV DNA are described in the Supplementary Methods.

HBV in HepG2.2.15 cells = experiment: Inhibition of HBV in HepG2.2.15 cells by PEP-1 delivered peptides; settings: for HBV DNA: HepG2.2.15 culture medium, peptide via PEP-1, 48 h; for HBsAg in culture medium: HepG2.2.15, peptide via PEP-1, 48 h
Method: as §1
To evaluate the potential inhibitory effects of peptides on HBV replication and transcription in HepG2.2.15 cells, HepG2.2.15 cells were pre-seeded 24 h before peptides treatment. HBx-aa113–135, HBx-aa118–127, or control peptide was transfected through pep-1 carriers and incubated for additional 48 h without the removal of peptides. The culture media of HepG2.2.15 cells were then harvested for analysis.
as §2

## SSTTSTGPCKTCTTPAQGTSMFP-K-biotin [Control, equal-length unrelated control biotin-labeled peptide]
HepG2-NTCP cells; replicate 1
  Cell viability: 102.557
HepG2-NTCP cells; replicate 2
  Cell viability: 97.209
HepG2-NTCP cells; replicate 3
  Cell viability: 100.234
[1]; replicate 1
  HBcAg in cells: 0.472 fold-change to WT
  HBeAg in culture medium: 0.329 fold-change to WT
  HBsAg in culture medium: 0.215 fold-change to WT
  Secreted HBV DNA: 990600 Copies/mL
[1]; replicate 2
  HBcAg in cells: 0.663 fold-change to WT
  HBeAg in culture medium: 0.389 fold-change to WT
  HBsAg in culture medium: 0.227 fold-change to WT
  Secreted HBV DNA: 564700 Copies/mL
[1]; replicate 3
  HBcAg in cells: 0.512 fold-change to WT
  HBeAg in culture medium: 0.344 fold-change to WT
  HBsAg in culture medium: 0.207 fold-change to WT
  Secreted HBV DNA: 887700 Copies/mL
HBV in HepG2.2.15 cells; replicate 1
  HBV DNA: 0.944 fold-change to control
  HBsAg in culture medium: 1.097 fold-change to control
HBV in HepG2.2.15 cells; replicate 2
  HBV DNA: 1.019 fold-change to control
  HBsAg in culture medium: 0.872 fold-change to control
HBV in HepG2.2.15 cells; replicate 3
  HBV DNA: 1.037 fold-change to control
  HBsAg in culture medium: 1.030 fold-change to control
